Test results from patent publication US5086042A, “Peptides with sulfate ester groups” (Fisons Corporation, priority 1989, dated 1992).
Values joined by “and” are separate entries in the source; they are usually repeats but may differ in a detail not shown here. Identical values can stand only once. Residues, ends and D or L forms follow the SMILES beside them.

Test system: Male Sprague-Dawley rats
Format: in vivo
Conditions: rat, intraperitoneal; for % FEEDING INHIBITION 0.5 hr (values marked *) / % FEEDING INHIBITION 3 hr (values marked *): 300 μg/kg, <10% inhibition at 30 μg/kg; for % FEEDING INHIBITION 0.5 hr (values marked *) / % FEEDING INHIBITION 0.5 hr / feeding inhibition during the 0.5 hour feeding period: 0.5 hr feeding period; for % FEEDING INHIBITION 0.5 hr / % FEEDING INHIBITION 3 hr: 30 μg/kg, vs saline controls; for % FEEDING INHIBITION 3 hr (values marked *) / feeding inhibition during the 3 hour feeding period / % FEEDING INHIBITION 3 hr: 3 hr feeding period; for feeding inhibition during the 0.5 hour feeding period: 0.3 μg/kg; for feeding inhibition during the 3 hour feeding period: 3 μg/kg; for % FEEDING INHIBITION 3 hr: IA means inactive
Protocol: The peptides of this invention have the ability to inhibit feeding activity in mammals. As a result they have utility in the prevention and treatment of obesity.
Male Sprague-Dawley rats (weighing 300-350 g) are individually caged and maintained on a 12 hr. light, dark cycle and trained for at least 14 days to feed during a three hr period of the dark cycle but not the 21 hours preceding that three hr period. The day of the study, rats are dosed intraperitoneally with saline (controls) or test compound (dissolved in saline; usually at a concentration of 0.3 to 300 micrograms of test compound per kg of rat weight). Food is introduced 10 minutes after administration of saline or test compound. […] The % feeding inhibition for the 1/2 hr and 3 hr feeding periods obtained by administering a dose of 30 μg/kg of test compound is given in Table 2 for CCK-8 and various compounds of the invention. For example, the % feeding inhibition obtained with CCK-8 (first line of Table 2) was 70% for the 1/2 hr feeding period and 25% for the 3-hour period.

| Compound | % FEEDING INHIBITION 0.5 hr (values marked *) | % FEEDING INHIBITION 0.5 hr | % FEEDING INHIBITION 3 hr (values marked *) | feeding inhibition during the 0.5 hour feeding period | feeding inhibition during the 3 hour feeding period | % FEEDING INHIBITION 3 hr |
| --- | --- | --- | --- | --- | --- | --- |
| CSCC[C@H](NC(=O)[C@H](Cc1c[nH]c2ccccc12)NC(=O)CN(C)C(=O)[C@H](CCSC)NC(=O)[C@H](Cc1ccc(OS(=O)(=O)O)cc1)NC(=O)[C@@H](N)CC(=O)O)C(=O)N[C@@H](CC(=O)O)C(=O)N[C@@H](Cc1ccccc1)C(N)=O [H-Asp-Tyr(SO3 H)-Met-Sar-Trp-Met-Asp-Phe-NH2] | 55% | – | – | – | – | – |
| CSCC[C@H](NC(=O)[C@H](Cc1c[nH]c2ccccc12)NC(=O)CNC(=O)[C@H](CCSC)NC(=O)[C@@H](N)Cc1ccc(OS(=O)(=O)O)cc1)C(=O)N[C@@H](CC(=O)O)C(=O)N[C@@H](Cc1ccccc1)C(N)=O [H-Try(SO3 H)-Met-Gly-Trp-Met-Asp-Phe-NH2, H-Tyr(SO3 H)-Met-Gly-Trp-Met-Asp-Phe-NH2] (HELM PEPTIDE1{[N[C@@H](Cc1ccc(OS(=O)(=O)O)cc1)C(=O)[*:2]].M.G.W.M.D.F.[am]}$$$$V2.0) | – | 50% | 30% | – | – | – |
| iBuOCO-Tyr(SO3 H)-Ahx-Gly-Trp-Ahx-Asp-MePhe-NH2 | – | 100% | – | 20-72% | 50-90% | 100% |
| CSCC[C@H](NC(=O)[C@H](Cc1c[nH]c2ccccc12)NC(=O)[C@@H](C)NC(=O)[C@H](CCSC)NC(=O)[C@H](Cc1ccc(OS(=O)(=O)O)cc1)NC(=O)[C@@H](N)CC(=O)O)C(=O)N[C@@H](CC(=O)O)C(=O)N[C@@H](Cc1ccccc1)C(N)=O [H-Asp-Tyr(SO3 H)-Met-DAla-Trp-Met-Asp-Phe-NH2] (HELM PEPTIDE1{D.[O=C([C@H](Cc1ccc(OS(=O)(=O)O)cc1)N[*:1])[*:2]].M.[dA].W.M.D.F.[am]}$$$$V2.0) | – | 16% | 18% | – | – | – |
| CSCC[C@H](NC(=O)[C@H](Cc1ccc(OS(=O)(=O)O)cc1)NC(=O)[C@@H](N)CC(=O)O)C(=O)NCC(=O)N[C@@H](Cc1c[nH]c2ccccc12)C(=O)N[C@@H](CCSC)C(=O)N[C@H](CC(=O)O)C(=O)N[C@@H](Cc1ccccc1)C(N)=O [H-Asp-Tyr(SO3 H)-Met-Gly-Trp-Met-DAsp-Phe-NH2] | – | 32% | 15% | – | – | – |
| CC[C@H](C)[C@H](NC(=O)[C@H](Cc1ccc(OS(=O)(=O)O)cc1)NC(=O)CCC(=O)O)C(=O)NCC(=O)N[C@@H](Cc1c[nH]c2ccccc12)C(=O)N[C@H](C(=O)N[C@@H](CC(=O)O)C(=O)N[C@@H](Cc1ccccc1)C(N)=O)[C@@H](C)CC [Suc-Tyr(SO3 H)-Ile-Gly-Trp-Ile-Asp-Phe-NH2] (HELM PEPTIDE1{[O=C(O)CCC(=O)[*:2]].[O=C([C@H](Cc1ccc(OS(=O)(=O)O)cc1)N[*:1])[*:2]].I.G.W.I.D.F.[am]}$$$$V2.0) | – | 73% | – | – | – | 54% |
| CSCC[C@H](NC(=O)[C@H](Cc1c[nH]c2ccccc12)NC(=O)[C@@H](C)NC(=O)[C@H](CCSC)NC(=O)[C@H](Cc1ccc(OS(=O)(=O)O)cc1)NC(=O)CCC(=O)O)C(=O)N[C@@H](CC(=O)O)C(=O)N[C@@H](Cc1ccccc1)C(N)=O [Suc-Tyr(SO3 H)-Met-DAla-Trp-Met-Asp-Phe-NH2] (HELM PEPTIDE1{[O=C(O)CCC(=O)[*:2]].[O=C([C@H](Cc1ccc(OS(=O)(=O)O)cc1)N[*:1])[*:2]].M.[dA].W.M.D.F.[am]}$$$$V2.0) | – | 75% | – | – | – | 30% |
| Suc-Tyr(SO3 H)-Ile-Gly-Trp-Ahx-Asp-MePhe-NH2 | – | 100% | – | 20-72% | 50-90% and 90% | 100% |
| NCCCC[C@H](NC(=O)[C@H](Cc1ccc(OS(=O)(=O)O)cc1)NC(=O)[C@@H](N)CC(=O)O)C(=O)NCC(=O)N[C@@H](Cc1c[nH]c2ccccc12)C(=O)N[C@@H](CCCCN)C(=O)N[C@@H](CC(=O)O)C(=O)N[C@@H](Cc1ccccc1)C(N)=O [H-Asp-Tyr(SO3 H)-Lys-Gly-Trp-Lys-Asp-Phe-NH2] (HELM PEPTIDE1{D.[O=C([C@H](Cc1ccc(OS(=O)(=O)O)cc1)N[*:1])[*:2]].K.G.W.K.D.F.[am]}$$$$V2.0) | 45% | – | – | – | – | – |
| CSCC[C@H](NC(=O)[C@H](Cc1ccc(OS(=O)(=O)O)cc1)NC(=O)[C@@H](N)CC(=O)O)C(=O)NCC(=O)N[C@H](Cc1c[nH]c2ccccc12)C(=O)N[C@@H](CCSC)C(=O)N[C@@H](CC(=O)O)C(=O)N[C@@H](Cc1ccccc1)C(N)=O [H-Asp-Tyr(SO3 H)-Met-Gly-DTrp-Met-Asp-Phe-NH2] | 42% | – | – | – | – | – |
| Suc-Tyr(SO3 H)-Ahx-Gly-Trp-Ahx-Asp-Phe-NH2 | – | 100% | – | 20-72% | 50-90% | 97% |
| CSCC[C@H](NC(=O)[C@H](Cc1ccc(OS(=O)(=O)O)cc1)NC(=O)CCC(=O)O)C(=O)NCC(=O)N[C@@H](Cc1c[nH]c2ccccc12)C(=O)N[C@@H](CCSC)C(=O)N[C@@H](CC(=O)O)C(=O)N[C@@H](Cc1ccccc1)C(N)=O [Suc-Tyr(SO3 H)-Met-Gly-Trp-Met-Asp-Phe-NH2] (HELM PEPTIDE1{[O=C(O)CCC(=O)[*:2]].[O=C([C@H](Cc1ccc(OS(=O)(=O)O)cc1)N[*:1])[*:2]].M.G.W.M.D.F.[am]}$$$$V2.0) | – | 75% | – | – | – | 55% |
| Hpp(SO3 sH)-Ahx-Gly-Trp-Ahx-Asp-MePhe-NH2 [Hpp(SO3 H)-Ahx-Gly-Trp-Ahx-Asp-MePhe-NH2] | – | 94% | – | 20-72% | 50-90% | 96% |
| CSCC[C@H](NC(=O)[C@H](Cc1ccc(OS(=O)(=O)O)cc1)NC(=O)[C@@H](N)CC(=O)O)C(=O)NCC(=O)N[C@@H](Cc1c[nH]c2ccccc12)C(=O)N[C@@H](CCSC)C(=O)N[C@@H](CC(=O)O)C(=O)N[C@H](Cc1ccccc1)C(N)=O [H-Asp-Tyr(SO3 H)-Met-Gly-Trp-Met] | – | 46% | 14% | – | – | – |
| CSCC[C@H](NC(=O)[C@H](Cc1ccc(OS(=O)(=O)O)cc1)NC(=O)[C@@H](N)CC(=O)O)C(=O)NCC(=O)N[C@@H](Cc1c[nH]c2ccccc12)C(=O)N[C@H](CCSC)C(=O)N[C@@H](CC(=O)O)C(=O)N[C@@H](Cc1ccccc1)C(N)=O [H-Asp-Tyr(SO3 H)-Met-Gly-Trp-DMet-Asp-Phe-NH2] | 30% | – | – | – | – | – |
| CCNC(=O)[C@H](Cc1ccccc1)NC(=O)[C@H](CC(=O)O)NC(=O)[C@H](CCSC)NC(=O)[C@H](Cc1c[nH]c2ccccc12)NC(=O)CNC(=O)[C@H](CCSC)NC(=O)[C@H](Cc1ccc(OS(=O)(=O)O)cc1)NC(=O)[C@@H](N)CC(=O)O [H-Asp-Tyr(SO3 H)-Met-Gly-Trp-Met-Asp-Phe-NHEt] | – | 16% | – | – | – | – |
| CSCC[C@H](NC(=O)[C@H](Cc1ccc(OS(=O)(=O)O)cc1)NC=O)C(=O)NCC(=O)N[C@@H](Cc1c[nH]c2ccccc12)C(=O)N[C@@H](CCSC)C(=O)N[C@@H](CC(=O)O)C(=O)N[C@@H](Cc1ccccc1)C(N)=O [For-Tyr(SO3 H)-Met-Gly-Trp-Met-Asp-Phe-NH2] (HELM PEPTIDE1{[O=C[*:2]].[O=C([C@H](Cc1ccc(OS(=O)(=O)O)cc1)N[*:1])[*:2]].M.G.W.M.D.F.[am]}$$$$V2.0) | – | 100% | – | – | – | 66% |
| Hpp(SO3 H)-Ahx-Gly-Trp-Ahx-Asp-Phe-NH2 | – | 100% | – | 20-72% | 50-90% | 99% |
| CSCC[C@H](NC(=O)[C@H](Cc1ccc(OS(=O)(=O)O)cc1)NC(=O)[C@@H](N)CC(=O)O)C(=O)NCC(=O)N[C@@H](Cc1c[nH]c2ccccc12)C(=O)N[C@@H](CCSC)C(=O)N[C@@H](CC(=O)O)C(=O)N[C@@H](Cc1ccc(N)cc1)C(N)=O [H-Asp-Tyr(SO3 H)-Met-Gly-Trp-Met-Asp-Phe(4-NH2)-NH2] | – | 27% | – | – | – | – |
| CSCC[C@H](NC(=O)[C@H](Cc1ccc(OS(=O)(=O)O)cc1)NC(=O)[C@@H](N)CC(=O)O)C(=O)NCC(=O)N[C@@H](Cc1c[nH]c2ccccc12)C(=O)N[C@@H](CCSC)C(=O)N[C@@H](CC(=O)O)C(=O)N[C@@H](Cc1ccc(Cl)cc1)C(N)=O [H-As-Tyr(SO3 H)-Met-Gly-Trp-Met-Asp-Phe(4-Cl)-NH2] | – | 54% | 28% | – | – | – |
| CSCC[C@H](NC(=O)[C@H](Cc1ccc(OS(=O)(=O)O)cc1)NC(=O)[C@@H](N)CC(=O)O)C(=O)NCC(=O)N[C@@H](Cc1c[nH]c2ccccc12)C(=O)N[C@@H](CCSC)C(=O)N[C@@H](CC(N)=O)C(=O)N[C@@H](Cc1ccccc1)C(N)=O [H-Asp-Tyr(SO3 H)-Met-Gly-Trp-Met-Asn-Phe-NH2] (HELM PEPTIDE1{D.[O=C([C@H](Cc1ccc(OS(=O)(=O)O)cc1)N[*:1])[*:2]].M.G.W.M.N.F.[am]}$$$$V2.0) | 43% | – | – | – | – | – |
| CSCC[C@H](NC(=O)[C@H](Cc1ccc(OS(=O)(=O)O)cc1)NC(=O)C[C@H](N)C(=O)O)C(=O)NCC(=O)N[C@@H](Cc1c[nH]c2ccccc12)C(=O)N[C@@H](CCSC)C(=O)N[C@@H](CC(=O)O)C(=O)N[C@@H](Cc1ccccc1)C(N)=O [H-βAsp-Tyr(SO3 H)-Met-Gly-Trp-Met-Asp-Phe-NH2] | – | 91% | – | – | – | 21% |
